Data set [1] can be described thus: AUC in po dosed monkey. It is filed as ADME, organism-based, Macaca mulatta. As to conditions: rhesus monkey, plasma.
Data set [2] in a line: Clearance in po dosed rat. It is filed as ADME, organism-based. As to conditions: in vivo.
Data set [3] can be described thus: Oral bioavailability in rat. It is filed as ADME, organism-based. As to conditions: in vivo.
Data set [4] in a line: Metabolic stability in monkey liver microsomes assessed as parent compound level. It is filed as ADME, Macaca mulatta, Microsome. As to conditions: rhesus monkey. In general terms: Liver microsomes are a subcellular fraction often used to study metabolism.
Data set [5] can be described thus: AUC in iv dosed rat. It is filed as ADME, organism-based. Particulars: plasma.
A short description of data set [6]: Oral bioavailability in dog. It counts as ADME, organism-based, Canis lupus familiaris. Particulars: in vivo.
Data set [7] is described as follows: Tmax in rat. It counts as ADME, organism-based. Particulars: in vivo.
The nature of data set [8]: AUC in po dosed rat. It is filed as ADME, organism-based. Particulars: plasma.
The test system of data set [9] is Liver microsomes. The data set is described as follows: Metabolic stability in human liver microsomes assessed as parent compound level. It counts as ADME, Microsome.
Data set [10] in a line: Tmax in monkey. As to conditions: rhesus monkey, in vivo. It counts as ADME, organism-based, Macaca mulatta.
Data set [11] in a line: Metabolic stability in dog liver microsomes assessed as parent compound level. It is filed as ADME, Canis lupus familiaris, Microsome.
Data set [12] can be described thus: Clearance in po dosed dog. As to conditions: in vivo. It counts as ADME, organism-based, Canis lupus familiaris.
Data set [13] can be described thus: Cmax in monkey. It is filed as ADME, organism-based, Macaca mulatta. Particulars: rhesus monkey, in vivo.
The nature of data set [14]: AUC in po dosed dog. It is filed as ADME, organism-based, Canis lupus familiaris. As to conditions: plasma.
The subject of the next data set is Rattus norvegicus. The data set is described as follows: Volume of distribution in po dosed rat. Particulars: in vivo. It is filed as ADME, organism-based.
Data set [15] can be described thus: AUC in iv dosed dog. Particulars: plasma. It is filed as ADME, organism-based, Canis lupus familiaris.
Data set [16] concerns Liver microsomes. The data set is described as follows: Metabolic stability in rat liver microsomes assessed as parent compound level. It is filed as ADME, Microsome.
Data set [17] can be described thus: Cmax in rat. It is filed as ADME, organism-based. Particulars: in vivo.
Data set [18] can be described thus: Metabolic stability in monkey liver microsomes assessed as demethylated metabolite level. It counts as ADME, Macaca mulatta, Microsome. As to conditions: rhesus monkey.
A short description of data set [19]: Cmax in dog. It is filed as ADME, organism-based, Canis lupus familiaris. As to conditions: in vivo.
Data set [20] can be described thus: Tmax in dog. Particulars: in vivo. It counts as ADME, organism-based, Canis lupus familiaris.
The test system of a further data set is Canis familiaris. Briefly: Volume of distribution in po dosed dog. It is filed as ADME, organism-based, Canis lupus familiaris. Particulars: in vivo.
The test system of data set [21] is Liver microsomes. The data set is described as follows: Metabolic stability in rat liver microsomes assessed as demethylated metabolite level. It counts as ADME, Microsome.
Data set [22] is described as follows: Oral bioavailability in monkey. It counts as ADME, organism-based, Macaca mulatta. Particulars: rhesus monkey, in vivo.

The values that follow come from ChEMBL document CHEMBL1156854, “Design and synthesis of piperazine-indole p38 alpha MAP kinase inhibitors with improved pharmacokinetic profiles” (Bioorg Med Chem Lett, 2010).

In the case of `C[C@@H]1CN(C(c2ccccc2)c2ccccc2)[C@@H](C)CN1C(=O)c1cc2c(C(=O)C(=O)N(C)C)cn(C)c2cc1Cl`, the area under the curve (AUC) (as a rule, the area under the concentration-time curve, a measure of exposure) in data set [1] is 1830 ng·h/mL; in data set [5], 810 ng·h/mL; in data set [8], 1270 ng·h/mL; in [14], 5610 ng·h/mL; in data set [15] it was 3430 ng·h/mL. For the same compound, the CL/F (as a rule, clearance divided by bioavailability, as obtained after extravascular dosing) was 20 mL/min/kg in data set [2] and 3.33 mL/min/kg in [12]. The bioavailability (as a rule, dose-corrected exposure relative to a reference, in per cent) in data set [3] is 31%; in data set [6], 33%. Also, the Stability is on record as 71.4% in data set [4]; 90.8% in the data set with Liver microsomes [9]; 91.7% in data set [11]; 83.9% with Liver microsomes [16]; 19.5% in data set [18]; 9.4% in the data set on Liver microsomes [21]. The Tmax (in general, the time from dosing to the highest level) in [7] worked out at 1.2 h; in [10], 2 h; in data set [20], 1.3 h. For the same compound, the maximum concentration (Cmax) – broadly, the highest concentration seen after dosing – in data set [13] was determined as 360 ng/mL; in data set [17], 367 ng/mL; in [19], 899 ng/mL. Moreover, the Vd came out at 2.7 L/kg with Rattus norvegicus and 6.5 L/kg in the data set on Canis familiaris.

On to `C[C@@H]1CN(Cc2ccc(F)cc2)[C@@H](C)CN1C(=O)c1cc2c(C(=O)C(=O)N(C)C)cn(C)c2cc1Cl` [TALMAPIMOD], for which the figures for the bioavailability in [22] and in data set [6] were 12% and 69%, respectively. In addition, the Stability is given as 51.2% in data set [4]; 65.1% in the data set on Liver microsomes [9]; 94.5% in data set [11]; 65.8% in the data set with Liver microsomes [16]; 11.9% in data set [18]; 3.2% in the data set on Liver microsomes [21].
